Values quoted from earlier work as cited in patent US10494420B2, “Mast cell stabilizers for treatment of hypercytokinemia and viral infection” (priority 2016, dated 2019).

Legend:
[1] = tested on: H5N1 Influenza Virus; conditions: mouse, in vivo
[2] = intranasal delivery versus any other route, rabbits
[3] = tested on: mast cells

For CN1CCC(=C2c3ccccc3CC(=O)c3sccc32)CC1 [ketotifen], the impact on survival [1] is listed as “increased when the compounds were combined”, the survival of mice [1] is listed as “increase survival of mice” and the bioavailability [2] is listed as “more bioavailable using intranasal delivery”. The “mast cell degranulation and release of mediators (histamine, TNF-α, prostaglandins, leukotrienes, interleukins)” value [3] was “inhibit mast cell degranulation”.
